Tests used:
[1] = test system: Landrace pig bladder strips; assay: In vitro functional model: field-stimulated bladder tissue strips; conditions: dose dependent, concentration range 10^−9 to 10^−5 M, control agonist
Experimental: Compounds were evaluated for functional potassium channel opening activity using tissue strips obtained from Landrace pig bladders. Landrace pig bladders were obtained from female Landrace pigs of 9-30 kg. Landrace pigs were euthanized with an intraperitoneal injection of pentobarbital solution, Somlethal®, J. A. Webster Inc., Sterling Mass. The entire bladder was removed and immediately placed into Krebs Ringer bicarbonate solution (composition, mM: NaCl, 120; NaHCO3, 20; dextrose, 11; KCl, 4.7; CaCl2, 2.5; MgSO4, 1.5; KH2PO4, 1.2; K2EDTA, 0.01, equilibrated with 5% CO2/95% O2 pH 7.4 at 37° C.). Propranolol (0.004 mM) was included in all of the assays to block β-adrenoceptors. The trigonal and dome portions were discarded. Strips 3-5 mm wide and 20 mm long were prepared from the remaining tissue cut in a circular fashion. The mucosal layer was removed. One end was fixed to a stationary glass rod and the other to a Grass FT03 transducer at a basal preload of 1.0 gram. Two parallel platinum electrodes were included in the stationary glass rod to provide field stimulation of 0.05 Hz, 0.5 milli-seconds at 20 volts. […] The maximal efficacy of each compound (expressed as % relative to P1075) is reported. […] Agonist potencies were also expressed as an index relative to P1075. The index was calculated by dividing the ED50 for P1075 by the ED50 for the test agonist in a given tissue. […]

melting point [°C]	SMILES	effect on stimulated twitch of bladder strips [1]
161 to 162	CC(=O)Nc1c(C(O)(C(F)(F)F)C(F)(F)F)cc(Cl)c2ccccc12 [Example 9, N-[4-Chloro-2-(2,2,2-trifluoro-1-hydroxy-1-trifluoromethyl-ethyl)-naphthalen-1-yl]-acetamide]	–
162 to 164	O=C(Nc1c(C(O)(C(F)(F)F)C(F)(F)F)ccc2ccccc12)c1ccno1 [Example 41, Isoxazole-5-carboxylic acid [2-(2,2,2-trifluoro-1-hydroxy-1-trifluoromethyl-ethyl)-naphthalen-1-yl]-amide]	–
–	CCC(C)(C)N=C(NC#N)Nc1cccnc1 [Example P1075]	completely eliminated the stimulated twitch
